Results on 80 molecules are retold here after article PMC12040169 (PLOS Biology, 2025).

Molecules are shown by their SMILES.

The nature of this data set: in vitro. Conditions: human, hela cells, % viability.

A word on the viability: it is a read-out of living cells in per cent, often relative to untreated cells. With `Cn1nc(C2CC2)cc1C(=O)NCCCN1CCCc2ccccc21` [CBK282476], the viability at 28.5 h, 10 µM came out at 90.7%. For `Cc1cc(C)c2nc(-c3cccnc3)cc(C(=O)N3CCN(S(=O)(=O)c4ccc(F)cc4)CC3)c2c1` [CBK267726] the value was 95%; for `c1ccc(N2CCC(CNCc3c[nH]nc3-c3cccnc3)C2)cc1` (centres unmarked) [CBK305738], 88.7%. Then `CCNc1cccnc1N(CC)C1CCN(C(=O)c2cc3cc4c(cc3[nH]2)OCO4)CC1` [CBK016815], with 111%. In the case of `O=S(=O)(c1ccc(C(F)(F)F)cc1Cl)N1CCCN(Cc2cccc3c2OCO3)CC1` [CBK063067], the viability at 28.5 h, 10 µM was 98.6%. Regarding `c1csc(-c2nccnc2OCC2COc3ccccc3O2)c1` (centres unmarked) [CBK107063], the viability at 28.5 h, 10 µM came to 101%. On to `CCN(CC)C(=O)Cn1ncc2c3sc(C)cc3n(CC)c2c1=O` [CBK284167], for which the viability at 28.5 h, 10 µM stood at 99.3%. Then `O=C(O)c1[nH]c2ccccc2c1NS(=O)(=O)c1ccc(Br)cc1` [CBK049878], with 61.1%; and `CCOc1ccc(CN2CCN(C(=O)c3cccc(C#N)c3)CC2)cc1` [CBK304527], with 93.5%. For the molecule `CC(C)NC(=O)c1sc2ccccc2c1C1CN(Cc2cccc3ncccc23)CCO1` (centres unmarked) [CBK285879], the viability at 28.5 h, 10 µM is 85.6%. Regarding `CCOC(=O)c1nc(N)oc1C` [CBK056636], the viability at 28.5 h, 10 µM amounted to 85.3%. Take `Cc1cccc(-c2ncc(NC(=O)CCOc3ccccc3)nc2-c2ccc(N)cc2)c1` [CBK036655]: the viability at 28.5 h, 10 µM amounted to 113%. Turning to `O=c1[nH]c(CSc2nnc(CCCOc3ccc(Cl)cc3Cl)o2)nc2ccccc12` [CBK268861], the viability at 28.5 h, 10 µM came to 97.2%. Then `CN(CCOc1ccc(Cl)cc1)C(=O)COc1cc2ccccc2cc1C(=O)O` [CBK296720], with 108%. With `Nc1cccc(Oc2ccc3c(c2)C(=O)N(CCC(=O)O)C3=O)c1` [CBK287186], the viability at 28.5 h, 10 µM came out at 94.1%. Then `NC(=O)C1CCN(C2CC(=O)NC2=O)CC1` (centres unmarked) [CBK263290], with 90.3%; and `Cc1cccnc1NC(=S)NC(=O)c1ccc([N+](=O)[O-])cc1` [CBK263931], with 92.9%; and `C[S+]([O-])c1ccc(-c2ccc(CN(C3CC3)C3CCN(c4ncccn4)CC3)cn2)cc1` (centres unmarked) [CBK172877], with 90.2%. Then `Cc1ccc(NC(=O)CSc2nnc(COc3ccc(Cl)cc3Cl)o2)cc1Cl` [CBK264113], with 90.9%; and `O=[N+]([O-])c1ccc(S(=O)(=O)Nc2nnc(Cc3ccc(Cl)cc3)s2)cc1` [CBK200046], with 93.2%.

As to `O=C(Cn1nnc2ccccc2c1=O)NC(Cc1ccccc1)c1ccccc1` (centres unmarked) [CBK296933], the viability at 28.5 h, 10 µM amounted to 96.6%. Regarding `Nc1nnc(SCc2nc3ccccc3n2Cc2ccccc2)s1` [CBK264649], the viability at 28.5 h, 10 µM worked out at 92.1%. Take `CC(C)(C)OC(=O)NC1CCC(NCc2ccncc2)CC1` (centres unmarked) [CBK056688]: the viability at 28.5 h, 10 µM was found to be 98.8%. For `CCOC(=O)C1(C2CCCCC2)CCN(C(=O)/C=C/c2ccc3c(c2)OCO3)CC1` [CBK136924] the value was 92.8%; for `CCn1c(SCC(=O)Nc2ccc([N+](=O)[O-])cc2)nnc1C(NC(=O)c1ccccc1)C(C)C` (centres unmarked) [CBK107508], 94.9%. For `Sc1nnnn1-c1ccccc1` [CBK022881G] the value was 99.9%; for `CC1(C)Sc2nc3ccccc3n2C1=O` [CBK022971], 85.4%; for `O=C(O)CCN1CCN(Cc2ccc(Cl)cc2)CC1` [CBK287271], 87.5%. On to `CC(C)(C)C(=O)N1CCC(n2nc(-c3cccs3)oc2=O)CC1` [CBK282423], for which the viability at 28.5 h, 10 µM was 88%. For `CC(C)C(=O)N1CCCc2cc(C(O)CN3CCCCC3)ccc21` (centres unmarked) [CBK282127] the value was 104%; for `OCCN(CCO)CC1CC2C=CC1C2` (centres unmarked) [CBK261874], 105%. Take `O=C1CC(c2ccccc2F)C2=C(COC2=O)N1` (centres unmarked) [CBK086692]: the viability at 28.5 h, 10 µM stood at 92%. As to `O=P(O)(O)Cc1ccccc1-c1ccccc1` [CBK012659], the viability at 28.5 h, 10 µM stood at 111%.

With `O=C(Cn1nnc2ccccc21)c1ccc2c(c1)CCN2S(=O)(=O)c1ccccc1` [CBK286464], the viability at 28.5 h, 10 µM worked out at 101%. Then `Cc1ccc(N(Cc2cc3cccc(C)c3nc2O)C(=O)c2cccc([N+](=O)[O-])c2)cc1` [CBK265426], with 98.2%; and `COc1cc(-c2nc3ccccn3c2/N=C/c2ccc(-c3ccc([N+](=O)[O-])cc3)o2)ccc1O` [CBK262288], with 79.8%; and `CCCC(=O)c1ccc(S(=O)(=O)N2CCN(CCCOC3CCCCO3)CC2)cc1` (centres unmarked) [CBK062858], with 96.6%. For `CC(=O)Nc1ccc(-c2ccc(C(=O)N3CCC(Sc4ccccc4)CC3)cn2)cc1` [CBK160188], the viability at 28.5 h, 10 µM was 99.6%. As to `CC1CCc2c(sc3ncnc(SCC(=O)N(C)CCC#N)c23)C1` (centres unmarked) [CBK305896], the viability at 28.5 h, 10 µM came out at 106%. As to `CC(=O)N1CCC(N2CC[C@H](c3nnc(C(C)(C)C)o3)C2)CC1` [CBK289404], the viability at 28.5 h, 10 µM was determined as 82.4%. For the molecule `CC(C)(C)OC(=O)N1CCN(CCn2cc(C(=O)O)nn2)CC1` [CBK287112], the viability at 28.5 h, 10 µM is 86.8%. For `CCOC(=O)c1ccccc1OC(=O)c1ccc2c(c1)C1C=CCC1C(C(=O)O)N2` (centres unmarked) [CBK265155] the value was 101%; for `CC(C)Nc1cncc(OCc2ccc(Cl)c(Cl)c2)n1` [CBK115653], 87.5%; for `CSCCC(=O)Nc1cc(C)nc2ccccc12` [CBK122729], 108%. Then `CC1(C)CC(=O)c2sc(NS(=O)(=O)c3sc(Cl)cc3Br)nc2C1` [CBK200029], with 109%; and `Cc1nn(C)cc1CN(Cc1ccc(F)cc1)CC1CCCO1` (centres unmarked) [CBK282472], with 98.5%; and `Cc1c(C#N)c(=O)ncn1Cc1ccncc1` [CBK021603], with 102%. Regarding `O=C(Nc1cccc(Cl)c1)Nc1ccccc1NC(=O)Nc1cccc(Cl)c1` [CBK267624], the viability at 28.5 h, 10 µM worked out at 92.4%. Then `Cc1nc(C(Cc2ccsc2)NC(=O)Cn2cccn2)sc1C` (centres unmarked) [CBK284781], with 93.9%; and `Oc1cccc2ccc(/C=N/N=C/c3ccc4cccc(O)c4n3)nc12` [CBK261127], with 89.3%; and `Fc1cc(Br)c(CNCc2ccno2)c(N2CCCCC2)c1F` [CBK304723], with 86.8%.

`O=C(NCCCc1nc2cc(F)ccc2[nH]1)[C@@H]1C[C@@H]2C=C[C@H]1C2` [CBK281665]: the viability at 28.5 h, 10 µM was found to be 103%. Then `NNC(=O)/C(=C\c1ccccc1)CCO` [CBK261215], with 117%; and `N#CCCCN1CCCC2(C1)NCCc1c2[nH]c2cc(F)ccc12` (centres unmarked) [CBK039826], with 117%; and `Cc1ccc(C)c(N2CCN(CCCNC(=S)Nc3ccc(Cl)cc3Cl)CC2)c1` [CBK267951], with 99.6%. Take `Cc1c(CNC2(c3ccccc3F)CCCC2)c(=O)n(C)c(=O)n1C` [CBK282986]: the viability at 28.5 h, 10 µM is 85.1%. For the molecule `NC(=O)C1(N2CCCCC2)CCN(Cc2nc(O)c3ccccc3n2)CC1` [CBK265896], the viability at 28.5 h, 10 µM was 103%. For the molecule `O=C(O)CC(NC(=O)c1ccccc1)c1ccco1` (centres unmarked) [CBK268843], the viability at 28.5 h, 10 µM came to 87.4%. In the case of `CN1CCN(C(c2ccc(O)cc2)c2nnnn2Cc2ccccc2)CC1` (centres unmarked) [CBK084719], the viability at 28.5 h, 10 µM is 94.8%.

Take `COc1ccc(SCCCCN2CCC3(CC2)OCCc2c3[nH]c3ccccc23)cc1` [CBK113464T]: the viability at 28.5 h, 10 µM came to 0.266%. In the case of `CC(CC(=O)N1CCCC(c2cc3cccnc3[nH]2)C1)n1ccnc1` (centres unmarked) [CBK285034], the viability at 28.5 h, 10 µM stood at 105%.

As for `O=C(O)c1ccc(CNC(=O)c2ccc3c(c2)C(=O)N(CC2CCCO2)C3=O)cc1` (centres unmarked) [CBK264256], the viability at 28.5 h, 10 µM stood at 98.4%. For `Cc1cc(C2CCCCCN2C(=O)c2c(Cl)cnn2C)on1` (centres unmarked) [CBK283045] the value was 108%.

As for `COC(=O)c1ccccc1NC(=O)N1CCN(S(=O)(=O)c2ccc(Cl)cc2)CC1` [CBK266860], the viability at 28.5 h, 10 µM was 88%. Then `Cc1cnc2c(N3CCCC3)nc(Cl)cn12` [CBK092250], with 104%; and `Cc1cc(/C=C(/C#N)c2ccc(C(=O)O)cc2)c(C)n1-c1ccc(S(N)(=O)=O)cc1` [CBK268896], with 116%. `CCN1C(=O)/C(=C/c2cc(Br)ccc2OCc2cccc([N+](=O)[O-])c2)NC1=S` [CBK265138]: the viability at 28.5 h, 10 µM amounted to 93.6%.

As for `NS(=O)(=O)c1ccc(CCNC(=O)c2cccnc2)cc1` [CBK268158], the viability at 28.5 h, 10 µM stood at 102%. Then `CN1CCCC1CCOc1ncccc1OCc1ccccc1` (centres unmarked) [CBK036313], with 93.1%; and `CN1CCN(CC(CC(=O)Nc2c(F)cccc2F)C(=O)O)CC1` (centres unmarked) [CBK286867], with 92%; and `COc1ccccc1C(=O)N1CCC(Cc2ccccc2-c2ccccc2)(C(N)=O)CC1` [CBK285739], with 96.4%. On to `CC(C)N(CCC(c1ccccc1)c1cc(Br)ccc1OCc1ccccc1)C(C)C` (centres unmarked) [CBK017656], for which the viability at 28.5 h, 10 µM is 79.4%.

Consider `CCN1C(=O)C2(CC(=O)N(CCc3cccc(OC)c3)C2=O)c2cc(C)ccc21` (centres unmarked) [CBK075195], for which the viability at 28.5 h, 10 µM stood at 96.7%. In the case of `CC(=O)N1Cc2ccccc2OC2(CCCN(C(=O)C3CC3)C2)C1` (centres unmarked) [CBK284991], the viability at 28.5 h, 10 µM was 97.1%.

On to `c1csc(Sc2nccnc2N2CCCC2)n1` [CBK093805], for which the viability at 28.5 h, 10 µM came out at 107%. For `COc1ccc(CCNC2CCN(Cc3ccccc3)CC2c2ccccc2)cc1OC` (centres unmarked) [CBK286166] the value was 92.8%; for `CCN(CC(O)COc1cc(C)c(Cl)c(C)c1)S(=O)(=O)O` (centres unmarked) [CBK026767N], 106%; for `COc1ccccc1N1CCN(CCC(=O)Nc2ccccc2F)CC1` [CBK264313], 106%. In the case of `C=CCNC(=O)c1ccccc1NC(=O)Cc1ccc(Cl)cc1` [CBK270086], the viability at 28.5 h, 10 µM was 101%. `COc1cc2[nH]c(=S)n(CCc3c[nH]cn3)c(=O)c2cc1OC` [CBK268333]: the viability at 28.5 h, 10 µM was determined as 102%.
